The values that follow come from ChEMBL document CHEMBL4346688, “Discovery of novel mutant-combating ALK and ROS1 dual inhibitors bearing imidazolidin-2-one moiety with reasonable PK properties” (Eur J Med Chem, 2019).

Broadly, the IC50 is the concentration that gives 50% inhibition. A lower IC50 goes with greater potency in that assay.

Test [1] deals with KARPAS-299. Put plainly: cells. Conditions: Homo sapiens, KARPAS-299, 72 h.
Description: Cytotoxicity against human KARPAS299 cells incubated for 72 hrs by MTT assay
Test [2] concerns NCI-H2228. Put plainly: cells. Conditions: Homo sapiens, NCI-H2228, 72 h.
Description: Cytotoxicity against human NCI-H2228 cells incubated for 72 hrs by MTT assay
The test system of test [3] is BaF3. Kind of test: cells. The following applies: Mus musculus, BaF3, 72 h.
In test [4] the test system is BaF3. Put plainly: cells. Conditions: Mus musculus, BaF3, 72 h. This is another data set of the same source.
Description: Cytotoxicity against mouse BA/F3 cells incubated for 72 hrs by MTT assay
The subject of test [5] is HCC78. Put plainly: cells. Conditions: Homo sapiens, HCC78, 72 h.
Description: Cytotoxicity against human HCC78 cells incubated for 72 hrs by MTT assay
The subject of test [6] is A549. Kind of test: cells. Conditions: Homo sapiens, A549, 72 h.
Test [7] concerns A549. Kind of test: cells. The following applies: Homo sapiens, A549, 72 h. The source holds these as a separate data set.
Description: Cytotoxicity against human A549 cells incubated for 72 hrs by MTT assay
For test [8], the target named is ALK tyrosine kinase receptor (Homo sapiens, UniProt Q9UM73).
ALK tyrosine kinase receptor (Homo sapiens, UniProt Q9UM73), sequence (Q9UM73 whole entry): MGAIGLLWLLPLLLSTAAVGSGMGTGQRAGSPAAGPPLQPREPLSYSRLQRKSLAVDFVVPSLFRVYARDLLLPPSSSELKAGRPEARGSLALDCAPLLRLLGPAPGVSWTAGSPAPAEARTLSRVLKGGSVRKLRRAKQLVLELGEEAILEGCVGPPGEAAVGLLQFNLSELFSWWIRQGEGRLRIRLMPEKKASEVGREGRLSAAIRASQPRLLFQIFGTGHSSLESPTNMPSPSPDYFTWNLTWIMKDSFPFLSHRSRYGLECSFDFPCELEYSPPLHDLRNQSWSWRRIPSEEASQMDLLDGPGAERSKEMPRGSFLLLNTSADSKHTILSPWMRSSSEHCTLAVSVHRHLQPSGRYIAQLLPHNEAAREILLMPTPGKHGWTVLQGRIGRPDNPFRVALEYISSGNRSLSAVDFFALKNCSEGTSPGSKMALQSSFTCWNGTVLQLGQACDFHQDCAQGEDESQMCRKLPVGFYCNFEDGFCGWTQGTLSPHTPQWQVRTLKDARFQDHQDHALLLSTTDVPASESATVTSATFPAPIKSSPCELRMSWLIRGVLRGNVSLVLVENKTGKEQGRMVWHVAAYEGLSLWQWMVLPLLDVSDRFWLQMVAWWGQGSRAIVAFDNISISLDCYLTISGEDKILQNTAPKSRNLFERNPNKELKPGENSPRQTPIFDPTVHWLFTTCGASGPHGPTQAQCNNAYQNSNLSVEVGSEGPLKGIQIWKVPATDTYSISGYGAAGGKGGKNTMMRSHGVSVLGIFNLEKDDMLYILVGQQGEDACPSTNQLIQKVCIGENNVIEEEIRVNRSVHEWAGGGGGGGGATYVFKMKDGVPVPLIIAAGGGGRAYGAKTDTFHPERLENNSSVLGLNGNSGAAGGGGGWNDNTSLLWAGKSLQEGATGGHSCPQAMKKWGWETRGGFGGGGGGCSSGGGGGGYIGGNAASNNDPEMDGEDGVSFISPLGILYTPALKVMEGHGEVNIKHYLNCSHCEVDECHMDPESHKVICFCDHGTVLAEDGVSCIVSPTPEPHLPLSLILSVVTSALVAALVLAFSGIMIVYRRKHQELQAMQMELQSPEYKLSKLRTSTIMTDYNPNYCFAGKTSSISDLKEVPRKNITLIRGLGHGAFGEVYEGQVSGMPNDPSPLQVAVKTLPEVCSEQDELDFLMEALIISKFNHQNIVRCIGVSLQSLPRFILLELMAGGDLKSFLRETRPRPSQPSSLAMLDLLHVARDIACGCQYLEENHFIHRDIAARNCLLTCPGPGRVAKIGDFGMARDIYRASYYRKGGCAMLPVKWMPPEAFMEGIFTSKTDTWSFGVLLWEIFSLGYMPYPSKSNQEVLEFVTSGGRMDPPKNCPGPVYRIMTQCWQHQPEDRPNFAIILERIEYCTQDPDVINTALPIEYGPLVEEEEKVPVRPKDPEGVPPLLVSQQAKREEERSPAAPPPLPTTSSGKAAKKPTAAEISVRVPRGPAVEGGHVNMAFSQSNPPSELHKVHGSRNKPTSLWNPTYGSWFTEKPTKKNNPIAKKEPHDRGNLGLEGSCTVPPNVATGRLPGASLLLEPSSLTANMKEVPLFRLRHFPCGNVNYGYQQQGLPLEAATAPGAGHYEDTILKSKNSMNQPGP
Description: Inhibition of N-terminal GST-tagged human ALK cytoplasmic domain (1058 to 1620 residues) expressed in Baculovirus expression system using srctide as substrate incubated for 1 hr by mobility shift assay
For test [9], the target named is ALK tyrosine kinase receptor (Homo sapiens, UniProt Q9UM73, L1196M).
ALK tyrosine kinase receptor (Homo sapiens, UniProt Q9UM73, L1196M), sequence (Q9UM73 19-1620 L1196M limits assumed): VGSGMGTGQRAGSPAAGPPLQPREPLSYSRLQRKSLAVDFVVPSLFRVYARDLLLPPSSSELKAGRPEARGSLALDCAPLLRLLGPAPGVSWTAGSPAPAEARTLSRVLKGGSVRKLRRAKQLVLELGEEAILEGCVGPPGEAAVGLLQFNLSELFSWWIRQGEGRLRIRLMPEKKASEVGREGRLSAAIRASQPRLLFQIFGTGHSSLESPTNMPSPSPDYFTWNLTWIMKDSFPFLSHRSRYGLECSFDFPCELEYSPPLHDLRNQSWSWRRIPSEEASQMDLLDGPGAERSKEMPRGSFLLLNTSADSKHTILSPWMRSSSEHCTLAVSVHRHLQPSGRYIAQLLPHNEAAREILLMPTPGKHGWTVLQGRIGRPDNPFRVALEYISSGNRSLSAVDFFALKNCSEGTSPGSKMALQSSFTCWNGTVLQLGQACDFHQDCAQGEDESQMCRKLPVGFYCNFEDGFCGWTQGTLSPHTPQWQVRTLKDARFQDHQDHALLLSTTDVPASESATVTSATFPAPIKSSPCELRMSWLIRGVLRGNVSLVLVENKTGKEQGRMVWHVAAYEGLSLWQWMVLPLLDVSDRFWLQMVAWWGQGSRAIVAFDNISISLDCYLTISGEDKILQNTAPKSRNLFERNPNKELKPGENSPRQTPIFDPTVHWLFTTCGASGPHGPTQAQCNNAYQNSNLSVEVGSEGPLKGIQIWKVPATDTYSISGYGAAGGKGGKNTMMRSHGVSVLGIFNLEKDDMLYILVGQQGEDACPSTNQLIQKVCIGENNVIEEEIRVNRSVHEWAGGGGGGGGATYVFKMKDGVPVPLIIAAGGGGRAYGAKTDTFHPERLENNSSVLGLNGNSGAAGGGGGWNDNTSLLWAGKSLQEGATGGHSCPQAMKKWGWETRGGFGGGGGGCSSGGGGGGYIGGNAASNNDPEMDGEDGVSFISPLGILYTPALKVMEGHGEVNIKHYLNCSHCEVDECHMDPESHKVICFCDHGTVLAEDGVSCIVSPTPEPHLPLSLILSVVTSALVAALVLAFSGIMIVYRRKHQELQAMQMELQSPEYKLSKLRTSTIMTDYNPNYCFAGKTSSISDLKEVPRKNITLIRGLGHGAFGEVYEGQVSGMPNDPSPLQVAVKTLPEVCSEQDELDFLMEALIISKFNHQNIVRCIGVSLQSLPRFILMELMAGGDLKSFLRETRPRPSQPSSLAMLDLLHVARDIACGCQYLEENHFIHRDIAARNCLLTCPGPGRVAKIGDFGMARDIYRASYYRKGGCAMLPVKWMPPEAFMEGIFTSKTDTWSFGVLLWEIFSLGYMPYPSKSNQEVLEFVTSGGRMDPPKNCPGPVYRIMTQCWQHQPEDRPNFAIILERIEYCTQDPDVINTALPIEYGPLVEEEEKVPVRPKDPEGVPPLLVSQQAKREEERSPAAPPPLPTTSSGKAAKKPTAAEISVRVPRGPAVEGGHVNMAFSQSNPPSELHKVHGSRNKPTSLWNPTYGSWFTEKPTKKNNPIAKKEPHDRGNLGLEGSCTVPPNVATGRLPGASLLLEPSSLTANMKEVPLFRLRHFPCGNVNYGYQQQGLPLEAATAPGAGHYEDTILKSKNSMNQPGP
Test [10] deals with ALK tyrosine kinase receptor (Homo sapiens, UniProt Q9UM73, G1202R).
ALK tyrosine kinase receptor (Homo sapiens, UniProt Q9UM73, G1202R), sequence (Q9UM73 19-1620 G1202R limits assumed): as the sequence (Q9UM73 19-1620 L1196M limits assumed) above, with M1178L, G1184R counted along it
Test [11] deals with Proto-oncogene tyrosine-protein kinase ROS (Homo sapiens, UniProt P08922).
Description: Inhibition of N-terminal GST-tagged human ROS1 cytoplasmic domain (1883 to 2347 residues) expressed in Baculovirus expression system using IRS1 as substrate incubated for 1 hr by mobility shift assay
In test [12] the target is Epidermal growth factor receptor (Homo sapiens, UniProt P00533).
Epidermal growth factor receptor, sequence (P00533 whole entry): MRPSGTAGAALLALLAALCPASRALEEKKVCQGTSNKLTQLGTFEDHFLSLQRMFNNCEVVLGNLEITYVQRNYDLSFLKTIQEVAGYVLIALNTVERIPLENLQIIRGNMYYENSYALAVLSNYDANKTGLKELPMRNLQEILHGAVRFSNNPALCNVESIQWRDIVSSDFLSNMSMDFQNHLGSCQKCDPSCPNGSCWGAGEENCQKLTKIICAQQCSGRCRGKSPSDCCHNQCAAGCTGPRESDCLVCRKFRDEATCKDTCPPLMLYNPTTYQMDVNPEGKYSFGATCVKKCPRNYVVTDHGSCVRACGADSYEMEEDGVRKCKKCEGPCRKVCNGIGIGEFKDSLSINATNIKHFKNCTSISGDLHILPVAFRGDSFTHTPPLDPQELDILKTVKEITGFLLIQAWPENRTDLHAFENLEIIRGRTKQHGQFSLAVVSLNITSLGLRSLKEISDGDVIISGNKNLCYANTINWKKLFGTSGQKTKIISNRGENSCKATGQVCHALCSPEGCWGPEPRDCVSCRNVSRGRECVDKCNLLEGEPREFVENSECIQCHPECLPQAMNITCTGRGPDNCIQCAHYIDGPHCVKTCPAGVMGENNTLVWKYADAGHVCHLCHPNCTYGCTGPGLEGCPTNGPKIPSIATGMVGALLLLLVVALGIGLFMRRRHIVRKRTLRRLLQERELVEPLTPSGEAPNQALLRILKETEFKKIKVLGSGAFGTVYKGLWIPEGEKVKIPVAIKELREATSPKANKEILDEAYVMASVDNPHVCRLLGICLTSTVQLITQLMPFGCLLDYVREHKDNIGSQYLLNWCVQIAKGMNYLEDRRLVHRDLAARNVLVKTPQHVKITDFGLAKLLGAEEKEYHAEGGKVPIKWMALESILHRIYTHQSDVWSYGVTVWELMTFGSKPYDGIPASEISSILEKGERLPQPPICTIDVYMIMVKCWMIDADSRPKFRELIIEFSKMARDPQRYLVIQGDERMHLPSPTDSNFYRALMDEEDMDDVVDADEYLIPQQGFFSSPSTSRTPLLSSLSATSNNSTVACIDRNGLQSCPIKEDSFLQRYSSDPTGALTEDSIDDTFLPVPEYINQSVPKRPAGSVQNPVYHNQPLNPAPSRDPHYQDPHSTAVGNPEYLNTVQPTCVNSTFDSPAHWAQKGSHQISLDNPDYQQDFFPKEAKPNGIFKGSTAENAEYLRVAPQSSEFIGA
Description: Inhibition of N-terminal GST-tagged human EGFR cytoplasmic domain (669 to 1210 residues) expressed in Baculovirus expression system using srctide as substrate incubated for 1 hr by mobility shift assay

As to `COc1cc(N2CCN(CCC#N)C2=O)ccc1Nc1ncc(Cl)c(Nc2ccccc2S(=O)(=O)C(C)C)n1`, the IC50 in test [1] is 250 nM; in test [2], 1130 nM; in test [3], 2780 nM; in test [4], more than 5000 nM; in test [5], 470 nM; in test [6], 2370 nM. The molecule further registered a half-inhibitory concentration (IC50) in [7] of more than 5000 nM.

Turning to `COc1cc(N2CCN(CC(=O)NC3CC3)C2=O)ccc1Nc1ncc(Cl)c(Nc2ccccc2S(=O)(=O)C(C)C)n1`, the IC50 in [1] is 270 nM; in test [2], 910 nM; in test [3] it was more than 5000 nM; in test [4], more than 5000 nM; in test [5] it was 510 nM; in test [6], 1740 nM. For the same molecule, in [7], the 50% inhibitory concentration (IC50) was more than 5000 nM.

For `COc1cc(N2CCN(CC(=O)N3CCC(=O)CC3)C2=O)ccc1Nc1ncc(Cl)c(Nc2ccccc2S(=O)(=O)C(C)C)n1`, the IC50 was 5.3 nM in test [8]; 2.7 nM in test [9]; 15.6 nM in test [10]; 1.7 nM in [11]; more than 1000 nM in [12]; 100 nM in test [1]. The IC50 in test [2] is 92 nM; in test [3] it was 460 nM; in test [4] it was more than 5000 nM; in [5] it was 670 nM; in test [6] it was 3550 nM; in test [7], more than 5000 nM.

As to `COc1cc(N2CCN(CC(=O)N3CCC[C@H]3CO)C2=O)ccc1Nc1ncc(Cl)c(Nc2ccccc2S(=O)(=O)C(C)C)n1`, the IC50 in test [1] is 140 nM; in [2], 170 nM; in test [3], 1190 nM; in test [4], more than 5000 nM; in test [5], 56 nM; in test [6], 1160 nM. Further, the IC50 in [7] was determined as 2450 nM.

On to `COc1cc(N2CCN(CC(=O)N3CCN(C)CC3)C2=O)ccc1Nc1ncc(Cl)c(Nc2ccccc2S(=O)(=O)C(C)C)n1`, for which the concentration for half-maximal inhibition (IC50) in [8] is 2.1 nM; in test [9] it was 0.87 nM; in [10] it was 10.3 nM; in [11] it was 0.81 nM; in test [12] it was more than 1000 nM; in [1], 39 nM. In addition, the 50% inhibitory concentration (IC50) in [2] was 41 nM; in test [3] it was 69 nM; in test [4], more than 5000 nM; in [5] it was 87 nM; in [6] it was 94 nM; in test [7], 1720 nM.

Turning to `COCCN1CCN(c2ccc(Nc3ncc(Cl)c(Nc4ccccc4S(=O)(=O)C(C)C)n3)c(OC)c2)C1=O`, the IC50 was 570 nM in test [1]; 870 nM in test [2]; 3510 nM in test [3]; more than 5000 nM in test [4]; 410 nM in [5]; 1150 nM in [6]. This molecule yielded a 50% inhibitory concentration (IC50) in [7] of 3110 nM.

Turning to `CCOC(=O)CN1CCN(c2ccc(Nc3ncc(Cl)c(Nc4ccccc4S(=O)(=O)C(C)C)n3)c(OC)c2)C1=O`, the IC50 in test [1] is 760 nM; in [2], 1530 nM; in [3] it was 3450 nM; in test [4], more than 5000 nM; in test [5] it was 1570 nM; in test [6], 2110 nM. Also, in [7], the IC50 was more than 5000 nM.

For the molecule `COc1cc(N2CCN(C[C@@H]3CO3)C2=O)ccc1Nc1ncc(Cl)c(Nc2ccccc2S(=O)(=O)C(C)C)n1`, the 50% inhibitory concentration (IC50) in test [1] is 170 nM; in test [2], 320 nM; in test [3] it was more than 5000 nM; in [4], more than 5000 nM; in test [5] it was 570 nM; in [6], 2820 nM. Further, the IC50 in test [7] was more than 5000 nM.

Turning to `COc1cc(N2CCN(CC(=O)N3CCSCC3)C2=O)ccc1Nc1ncc(Cl)c(Nc2ccccc2S(=O)(=O)C(C)C)n1`, the IC50 is 370 nM in test [1]; 270 nM in test [2]; 1960 nM in test [3]; more than 5000 nM in test [4]; 530 nM in test [5]; 1270 nM in test [6]. In addition, the IC50 in test [7] was more than 5000 nM.

On to `COc1cc(N2CCN(CC(=O)N3CCC(C)CC3)C2=O)ccc1Nc1ncc(Cl)c(Nc2ccccc2S(=O)(=O)C(C)C)n1`, for which the half-maximal inhibitory concentration (IC50) in test [1] was 280 nM; in [2], 350 nM; in [3], more than 5000 nM; in [4], more than 5000 nM; in [5] it was 870 nM; in test [6], 2360 nM. The molecule further came in with an IC50 in test [7] of more than 5000 nM.

For `COc1cc(N2CCN(CC(=O)N3CCN(CCO)CC3)C2=O)ccc1Nc1ncc(Cl)c(Nc2ccccc2S(=O)(=O)C(C)C)n1`, the IC50 in [1] is 110 nM; in [2], 120 nM; in [3], 160 nM; in test [4], more than 5000 nM; in test [5] it was 390 nM; in test [6] it was 2440 nM. In addition, half-maximal inhibition in [7] (IC50) required 4590 nM.

For `COc1cc(N2CCN(CC(=O)N3CCOCC3)C2=O)ccc1Nc1ncc(Cl)c(Nc2ccccc2S(=O)(=O)C(C)C)n1`, the IC50 in test [1] was 760 nM; in [2] it was 570 nM; in [3], 2060 nM; in test [4], more than 5000 nM; in test [5], 210 nM; in test [6], 970 nM. In test [7], this molecule yielded an IC50 of more than 5000 nM.

Consider `COc1cc(N2CCN(C(=O)C3CCOCC3)C2=O)ccc1Nc1ncc(Cl)c(Nc2ccccc2S(=O)(=O)C(C)C)n1`, for which the IC50 in [1] is 310 nM; in [2] it was 920 nM; in test [3] it was more than 5000 nM; in test [4], more than 5000 nM; in test [5], 690 nM; in [6] it was more than 5000 nM. For the same molecule, the concentration for half-maximal inhibition (IC50) in test [7] is more than 5000 nM.

Turning to `COc1cc(N2CCN(CC(=O)NCC#N)C2=O)ccc1Nc1ncc(Cl)c(Nc2ccccc2S(=O)(=O)C(C)C)n1`, the IC50 in [1] is 150 nM; in test [2], 230 nM; in [3], 2790 nM; in test [4], more than 5000 nM; in [5], 77 nM; in test [6], 2410 nM. The molecule also registered an IC50 in [7] of 4120 nM.

Turning to `COc1cc(N2CCN(CC(=O)N3CCCCC3)C2=O)ccc1Nc1ncc(Cl)c(Nc2ccccc2S(=O)(=O)C(C)C)n1`, the IC50 is 150 nM in test [1]; 530 nM in test [2]; 2970 nM in [3]; more than 5000 nM in [4]; 490 nM in test [5]; 1070 nM in [6]. The molecule further displayed a 50% inhibitory concentration (IC50) in test [7] of more than 5000 nM.

Regarding `CCN(CC)C(=O)CN1CCN(c2ccc(Nc3ncc(Cl)c(Nc4ccccc4S(=O)(=O)C(C)C)n3)c(OC)c2)C1=O`, the 50% inhibitory concentration (IC50) in [1] is 170 nM; in test [2] it was 870 nM; in test [3] it was more than 5000 nM; in test [4], more than 5000 nM; in [5] it was 310 nM; in [6], 1490 nM. Moreover, the IC50 in test [7] is more than 5000 nM.

Regarding `COc1cc(N2CCN(CCN3CCOCC3)C2=O)ccc1Nc1ncc(Cl)c(Nc2ccccc2S(=O)(=O)C(C)C)n1`, the IC50 was 390 nM in test [1]; 750 nM in test [2]; 110 nM in [3]; more than 5000 nM in [4]; 730 nM in [5]; 2170 nM in [6]. The IC50 in test [7] is more than 5000 nM.

On to `CNC(=O)CN1CCN(c2ccc(Nc3ncc(Cl)c(Nc4ccccc4S(=O)(=O)C(C)C)n3)c(OC)c2)C1=O`, for which the IC50 in [1] was 760 nM; in test [2], 670 nM; in test [3] it was 1710 nM; in test [4], more than 5000 nM; in test [5], 610 nM; in test [6], 140 nM. Further, the 50% inhibitory concentration (IC50) in test [7] was more than 5000 nM.

Regarding `COc1cc(N2CCN(CC(=O)NCCO)C2=O)ccc1Nc1ncc(Cl)c(Nc2ccccc2S(=O)(=O)C(C)C)n1`, the half-inhibitory concentration (IC50) in test [1] was 110 nM; in test [2], 420 nM; in test [3], 3220 nM; in [4], more than 5000 nM; in test [5], 69 nM; in test [6], 1830 nM. The concentration for half-maximal inhibition (IC50) in test [7] is more than 5000 nM.

Take `COc1cc(N2CCN(CC(=O)O)C2=O)ccc1Nc1ncc(Cl)c(Nc2ccccc2S(=O)(=O)C(C)C)n1`: the IC50 in [1] was 3270 nM; in [2], 1710 nM; in [3], more than 5000 nM; in test [4], more than 5000 nM; in test [5], 2510 nM; in test [6] it was more than 5000 nM. In test [7], this molecule gave an IC50 of more than 5000 nM.

In the case of `COc1cc(N2CCN(C(=O)N(C)C)C2=O)ccc1Nc1ncc(Cl)c(Nc2ccccc2S(=O)(=O)C(C)C)n1`, the half-inhibitory concentration (IC50) in test [1] was 250 nM; in test [2] it was 610 nM; in test [3] it was more than 5000 nM; in test [4], more than 5000 nM; in test [5] it was 670 nM; in test [6], 1410 nM. In [7], this molecule gave an IC50 of 2590 nM.

As to `COc1cc(N2CCN(CC(=O)N3CC(O)C3)C2=O)ccc1Nc1ncc(Cl)c(Nc2ccccc2S(=O)(=O)C(C)C)n1`, the half-maximal inhibitory concentration (IC50) in test [1] was 130 nM; in test [2], 320 nM; in test [3], 4280 nM; in test [4], more than 5000 nM; in [5], 110 nM; in test [6], 1020 nM. This molecule returned a 50% inhibitory concentration (IC50) in test [7] of 2970 nM.

`COc1cc(N2CCN(CC(=O)N3CCCC3)C2=O)ccc1Nc1ncc(Cl)c(Nc2ccccc2S(=O)(=O)C(C)C)n1`: the IC50 in test [1] was 390 nM; in [2], 150 nM; in test [3] it was 2490 nM; in test [4], 4500 nM; in [5] it was 270 nM; in test [6], 1100 nM. Besides, the IC50 in test [7] was 3100 nM.
